In ChEMBL document CHEMBL1128846, “Synthesis and pharmacological activity of conformationally restricted, acetylenic retinoid analogs” (Bioorg Med Chem Lett, 1995):

Tests used:
Mus musculus = experiment: In vivo inhibition of TPA-induced ornithine decarboxylase (ODC) activity in hairless mouse skin; type: functional
[1] = molecular target: T1, Retinoic acid receptor beta (Homo sapiens, UniProt P10826); experiment: Transcriptional activation of retinoic acid receptor RAR beta; not active
T1 sequence (P10826 whole entry): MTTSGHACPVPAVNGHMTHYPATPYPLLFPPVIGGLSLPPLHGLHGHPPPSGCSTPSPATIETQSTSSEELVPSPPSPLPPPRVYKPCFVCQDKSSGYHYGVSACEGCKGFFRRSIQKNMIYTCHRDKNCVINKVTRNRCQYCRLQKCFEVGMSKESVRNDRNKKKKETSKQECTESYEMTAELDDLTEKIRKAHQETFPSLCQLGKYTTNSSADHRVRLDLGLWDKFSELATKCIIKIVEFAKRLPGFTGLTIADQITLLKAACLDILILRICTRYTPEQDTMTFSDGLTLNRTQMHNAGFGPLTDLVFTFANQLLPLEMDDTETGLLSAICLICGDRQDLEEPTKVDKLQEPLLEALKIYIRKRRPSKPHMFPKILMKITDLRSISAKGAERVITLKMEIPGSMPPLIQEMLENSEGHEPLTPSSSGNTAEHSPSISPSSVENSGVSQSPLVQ

[2] = molecular target: T2, Retinoic acid receptor alpha (Homo sapiens, UniProt P10276); experiment: Transcriptional activation of retinoic acid receptor RAR alpha; not active
T2 sequence (P10276 whole entry): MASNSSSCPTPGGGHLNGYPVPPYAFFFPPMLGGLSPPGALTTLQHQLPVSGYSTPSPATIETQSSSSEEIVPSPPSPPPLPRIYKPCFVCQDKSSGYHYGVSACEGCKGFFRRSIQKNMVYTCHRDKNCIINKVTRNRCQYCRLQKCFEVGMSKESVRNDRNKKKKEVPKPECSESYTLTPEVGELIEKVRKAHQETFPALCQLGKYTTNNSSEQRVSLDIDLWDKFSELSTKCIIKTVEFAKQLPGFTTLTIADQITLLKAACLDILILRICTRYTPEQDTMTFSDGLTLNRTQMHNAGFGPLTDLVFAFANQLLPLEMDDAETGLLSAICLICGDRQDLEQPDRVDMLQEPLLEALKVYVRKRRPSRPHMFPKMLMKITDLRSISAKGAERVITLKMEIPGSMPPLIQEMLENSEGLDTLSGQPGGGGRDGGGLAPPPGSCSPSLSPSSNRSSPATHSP

[3] = molecular target: T3, Retinoic acid receptor gamma (Homo sapiens, UniProt P13631); experiment: Transcriptional activation of retinoic acid receptor RAR gamma; not active
T3 sequence (P13631 whole entry): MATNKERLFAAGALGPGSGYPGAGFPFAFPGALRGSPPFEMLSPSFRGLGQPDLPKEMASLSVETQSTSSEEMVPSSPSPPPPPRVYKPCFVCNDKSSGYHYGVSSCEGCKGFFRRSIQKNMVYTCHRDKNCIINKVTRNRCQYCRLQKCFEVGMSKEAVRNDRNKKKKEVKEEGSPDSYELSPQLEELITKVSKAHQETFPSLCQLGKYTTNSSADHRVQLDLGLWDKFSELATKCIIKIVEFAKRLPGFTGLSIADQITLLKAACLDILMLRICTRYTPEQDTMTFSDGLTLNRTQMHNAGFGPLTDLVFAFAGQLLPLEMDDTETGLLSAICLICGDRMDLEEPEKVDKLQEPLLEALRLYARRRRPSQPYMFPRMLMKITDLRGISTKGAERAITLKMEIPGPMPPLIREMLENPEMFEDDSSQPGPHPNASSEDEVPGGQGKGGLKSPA

[4] = molecular target: T4, Retinoic acid receptor RXR-alpha (Homo sapiens, UniProt P19793); experiment: Transcriptional activation of retinoid X receptor RXR alpha; not active
T4 sequence (P19793 whole entry): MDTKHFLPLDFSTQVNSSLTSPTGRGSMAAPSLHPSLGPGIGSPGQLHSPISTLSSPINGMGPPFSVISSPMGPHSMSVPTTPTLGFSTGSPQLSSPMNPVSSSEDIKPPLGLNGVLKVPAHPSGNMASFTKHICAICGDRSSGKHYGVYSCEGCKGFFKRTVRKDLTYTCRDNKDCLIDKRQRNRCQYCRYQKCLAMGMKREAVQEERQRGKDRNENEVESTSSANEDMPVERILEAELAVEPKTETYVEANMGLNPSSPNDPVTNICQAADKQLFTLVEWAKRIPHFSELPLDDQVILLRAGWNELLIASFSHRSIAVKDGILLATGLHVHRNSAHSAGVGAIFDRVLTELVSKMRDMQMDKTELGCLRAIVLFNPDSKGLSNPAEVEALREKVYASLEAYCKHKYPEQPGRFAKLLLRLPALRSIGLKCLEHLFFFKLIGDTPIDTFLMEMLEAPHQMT

[5] = molecular target: T1, Retinoic acid receptor beta; experiment: (§1) Transcriptional activation of retinoic acid receptor RAR beta
[6] = molecular target: T3, Retinoic acid receptor gamma; experiment: Transcriptional activation of retinoic acid receptor RAR gamma
[7] = molecular target: T1, Retinoic acid receptor beta; experiment: as §1; remark: listed apart in the source
[8] = molecular target: T2, Retinoic acid receptor alpha; experiment: Transcriptional activation of retinoic acid receptor RAR alpha

SMILES	IC80 (Mus musculus) [nmol]	EC50 [2] [µM]	EC50 [4] [µM]	also measured
CCOC(=O)c1ccc(C#C/C=C/C2=C(C)CCCC2(C)C)s1	30	–	–	–
CC1=C(/C=C/C#Cc2ccccc2C(=O)O)C(C)(C)CCC1	> 1000	> 10	> 10	EC50 [1]: > 10 µM; EC50 [3]: > 10 µM
CCOC(=O)c1ccccc1C#C/C=C/C1=C(C)CCCC1(C)C	> 1000	–	–	–
CC1=C(/C=C/C#Cc2cccc(C(=O)O)c2)C(C)(C)CCC1	890	> 10	> 10	EC50 [1]: > 10 µM; EC50 [3]: > 10 µM
CC1=C(/C=C/C#Cc2ccc(C(=O)O)cn2)C(C)(C)CCC1	14.8	> 10	–	EC50 [5]: > 0.005 µM; EC50 [6]: > 0.015 µM
CCOC(=O)c1ccc(C#C/C=C/C2=C(C)CCCC2(C)C)o1	> 300	–	–	–
CCOC(=O)c1ccc2cc(C#CC3=C(C)CCCC3(C)C)ccc2c1	131	–	–	–
CCOC(=O)c1ccc(C#C/C=C/C2=C(C)CCCC2(C)C)nc1	5.3	–	–	–
CCOC(=O)c1cccc(C#C/C=C/C2=C(C)CCCC2(C)C)c1	> 1000	–	–	–
CC1=C(C#Cc2ccc3cc(C(=O)O)ccc3c2)C(C)(C)CCC1	215	> 10	> 10	EC50 [5]: 0.355 µM; EC50 [7]: 0.93 µM
CC1=C(/C=C/C#Cc2ccc(C(=O)O)cc2)C(C)(C)CCC1	0.46	–	10	EC50 [5]: 0.002 µM; EC50 [8]: 0.598 µM; EC50 [6]: 0.01 µM
C/C(=C\c1ccc(C(=O)O)cc1)c1ccc2c(c1)C(C)(C)CCC2(C)C	–	–	10	–
CCOC(=O)c1ccc(C#C/C=C/C2=C(C)CCCC2(C)C)cc1	1.3	–	–	–
